Test results: patent publication US20230151037A1, “GPR40 AGONISTS” (Kallyope, Inc., priority 2020, published 2023)

Legend:
[1] = In vivo plasma levels in mice after oral gavage, with unbound exposure from plasma protein binding; settings: male C57BL/6J mice, 30 mg/kg oral gavage; for Exposure (nM) (unbound), unbound exposure in plasma: total exposure x free fraction; for concentration at 5 h / concentration at 2 h: mouse, plasma, read-out: Exposure (nM), total exposure in plasma
Procedure: Male C57BL/6J mice 10-12 weeks old were dosed with test article (30 mg/kg) or vehicle by oral gavage. Animals were euthanized with carbon dioxide at 2 h or 5 h post dose. Blood was collected for measurement of plasma concentrations of test article. Unbound exposure was calculated by multiplying the measured total exposure by the free fraction as assessed from plasma protein binding.
Plasma protein binding to isotonic phosphate buffer (PBS) containing 10% C57 BL/6 mouse plasma was determined using equilibrium dialysis of plasma spiked with test article (2 μM) against a dialysis buffer (100 mM sodium phosphate and 150 mM NaCl). At the end of the dialysis (4 hr), aliquots of the plasma and buffer were processed by protein precipitation for LC-MS/MS analysis to quantitate the test article.
Results for exemplary compounds (total exposure in plasma and unbound exposure in plasma; ratio of EC50 to unbound exposure in plasma) are shown in Table 2.

human GPR40 = target: T1, human GPR40 (Homo sapiens, UniProt O14842); assay: Inositol phosphate accumulation assay (IP1 HTRF) in CHO-K1 cells expressing human GPR40; format: cell-based; settings: 90 min
T1 construct: host or cells: CHO-K1
Procedure: CHO-K1 cells expressing human GPR40 were purchased from DiscoverX (95-1005C2). HEK293 cells expressing mouse FFAR1 were prepared using a mouse FFAR1 carrying plasmid purchased from OriGene Technologies (MR222997). The cells were transfected using Lipofectamine 2000 using manufacturer instructions and stable cell line was established from a single cell using geneticine selection. Assay ready frozen (ARF) cells were prepared and used throughout the study.
The assay was performed in a 384-well plate format using IP1 assay kit from Cis-Bio. ARF cells expressing FFAR1 (mouse and human) were thawed, washed and then plated in the appropriate medium (F12 based medium for CHO hFFAR1 and DMEM based medium for HEK293 mFFAR1-both were supplemented with 10% FBS and penicillin/streptomycin). 20 μL of 3.5×10^5 cells/mL were plated on a Poly D-Lysine coated 384-well white plate. The cells were then incubated for 16 hr at 37° C./5% CO2. After 16 hr the medium was removed and 15 μL of stimulation buffer containing the test compounds was added to the cells. The plates were then incubated for 90 min at 37° C./5% CO2. 5 μL of detection buffer (prepared as described in the IP-one kit) was added to each well and the plates were incubated at RT for 1 hr.
[…] was measured using ClarioSTAR plate reader, calculating the ratio between emissions at 665 nm and 620 nm (HTRF ratio). HTRF ratio for positive (Max) and negative (Min) controls were used to normalize HTRF data and generate values for % activity. EC50 and Max activity values were determined using a standard 4-parameter fit.

T1 sequence (O14842 whole entry): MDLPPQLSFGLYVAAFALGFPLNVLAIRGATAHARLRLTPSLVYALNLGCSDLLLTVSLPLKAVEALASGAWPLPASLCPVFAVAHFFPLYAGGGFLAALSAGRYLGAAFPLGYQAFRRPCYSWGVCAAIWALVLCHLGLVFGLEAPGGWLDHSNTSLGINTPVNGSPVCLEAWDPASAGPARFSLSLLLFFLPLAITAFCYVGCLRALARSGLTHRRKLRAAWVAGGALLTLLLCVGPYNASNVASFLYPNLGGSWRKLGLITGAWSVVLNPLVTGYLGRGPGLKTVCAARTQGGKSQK

## COc1cccc(-c2ccc(COc3cccc([C@@H](CP(C)(=O)O)C4CC4)c3)cc2[C@@H](OC)C(C)(C)C)c1 [Compound 29, ((S)-2-cyclopropyl-2-(3-((3′-methoxy-2-((S)-1-methoxy-2,2-dimethylpropyl)-[1,1′-biphenyl]-4-yl)methoxy)phenyl)ethyl)(methyl)phosphinic acid]
[1]; 5 h post-dose
  Exposure (nM) (unbound), unbound exposure in plasma: 0.06 nM
  concentration at 5 h: 140 nM
Human GPR40
  EC50: ≤ 50 nM

## COc1ccc(F)c(-c2ccc(COc3cccc([C@@H](CP(C)(=O)O)C4CC4)c3)cc2[C@@H](OC)C(C)(C)C)c1 [Compound 24, ((S)-2-cyclopropyl-2-(3-((2′-fluoro-5′-methoxy-2-((S)-1-methoxy-2,2-dimethylpropyl)-[1,1′-biphenyl]-4-yl)methoxy)phenyl)ethyl)(methyl)phosphinic acid]
[1]; 5 h post-dose
  Exposure (nM) (unbound), unbound exposure in plasma: 0.03 nM
  concentration at 5 h: 145 nM
Human GPR40
  EC50: ≤ 50 nM

## COc1cc(-c2ccc(COc3cccc(C(CP(C)(=O)O)C4CC4)c3)cc2CN(C(C)C)C(C)C)c(F)cn1 (single isomer, unassigned) [Compound 13, (2-cyclopropyl-2-(3-((3-((diisopropylamino)methyl)-4-(5-fluoro-2-methoxypyridin-4-yl)benzyl)oxy)phenyl)ethyl)(methyl)phosphinic acid]
[1]; 2 h post-dose
  Exposure (nM) (unbound), unbound exposure in plasma: 1.2 nM
  concentration at 2 h: 294 nM
Human GPR40
  EC50: 50 to 250 nM

## COc1cc(-c2ccc(COc3cccc([C@@H](CP(C)(=O)O)C4CC4)c3)cc2[C@@H](OC)C(C)(C)C)c(F)cn1 [Compound 25, ((S)-2-cyclopropyl-2-(3-((4-(5-fluoro-2-methoxypyridin-4-yl)-3-((S)-1-methoxy-2,2-dimethylpropyl)benzyl)oxy)phenyl)ethyl)(methyl)phosphinic acid]
[1]; 2 h post-dose
  Exposure (nM) (unbound), unbound exposure in plasma: 1.1 nM
  concentration at 2 h: 1840 nM
Human GPR40
  EC50: ≤ 50 nM

## COc1cc(-c2ccc(COc3cccc(C(C)CP(C)(=O)O)c3)cc2[C@@H](OC)C(C)(C)C)c(F)cn1 (stereo partly drawn) [Compound 34, (2-(3-((4-(5-fluoro-2-methoxypyridin-4-yl)-3-((S)-1-methoxy-2,2-dimethylpropyl)benzyl)oxy)phenyl)propyl)(methyl)phosphinic acid]
Human GPR40
  EC50: ≤ 50 nM

## COc1cc(-c2ccc(COc3cc(C(C)CP(C)(=O)O)ccn3)cc2CN(C(C)C)C(C)C)c(F)cn1 (single isomer, unassigned) [Compound 39, ((R)-2-(2-((3-((diisopropylamino)methyl)-4-(5-fluoro-2-methoxypyridin-4-yl)benzyl)oxy)pyridin-4-yl)propyl)(methyl)phosphinic acid or ((S)-2-(2-((3-((diisopropylamino)methyl)-4-(5-fluoro-2-methoxypyridin-4-yl)benzyl)oxy)pyridin-4-yl)propyl)(methyl)phosphinic acid]
Human GPR40
  EC50: > 1000 nM

## COc1ccc(F)c(-c2ccc(COc3cccc(C(C)CP(C)(=O)O)c3)cc2[C@@H](OC)C(C)(C)C)c1 (single isomer, unassigned) [Compound 32]
Human GPR40
  EC50: ≤ 50 nM

## COc1cc(-c2ccc(COc3cccc(C(C)CP(C)(=O)O)c3)cc2CN(C(C)C)C(C)C)c(F)cn1 (single isomer, unassigned) [Compound 35, (2-(3-((3-((diisopropylamino)methyl)-4-(5-fluoro-2-methoxypyridin-4-yl)benzyl)oxy)phenyl)propyl)(methyl)phosphinic acid]
Human GPR40
  EC50: 50 to 250 nM

## CCC(C[PH](=O)O)c1cccc(OCc2ccc(-c3cc(OC)ncc3F)c(CN(C(C)C)C(C)C)c2)c1 (stereo not shown) [Compound 23, (2-(3-((3-((diisopropylamino)methyl)-4-(5-fluoro-2-methoxypyridin-4-yl)benzyl)oxy)phenyl)butyl)phosphinic acid]
Human GPR40
  EC50: > 1000 nM

## COc1cc(-c2ccc(COc3cccc(C(CP(C)(=O)O)C4CC4)c3)cc2CN(C(C)C)C(C)C)c(F)cn1 (single isomer, unassigned) [Compound 10, (2-cyclopropyl-2-(3-((3-((diisopropylamino)methyl)-4-(5-fluoro-2-methoxypyridin-4-yl)benzyl)oxy)phenyl)ethyl)(methyl)phosphinic acid]
Human GPR40
  EC50: 50 to 250 nM

## COc1cc(-c2ccc(COc3cccc(C(CP(=O)(O)O)C4CC4)c3)cc2CN(C(C)C)C(C)C)c(F)cn1 (stereo not shown) [Compound 8, (2-cyclopropyl-2-(3-((3-((diisopropylamino)methyl)-4-(5-fluoro-2-methoxypyridin-4-yl)benzyl)oxy)phenyl)ethyl)phosphonic acid]
Human GPR40
  EC50: > 1000 nM

## CO[C@H](c1cc(COc2cccc([C@@H](CP(C)(=O)O)C3CC3)c2)ccc1-c1cc(O)ccc1F)C(C)(C)C [Compound 26, ((S)-2-cyclopropyl-2-(3-((2′-fluoro-5′-hydroxy-2-((S)-1-methoxy-2,2-dimethylpropyl)-[1,1′-biphenyl]-4-yl)methoxy)phenyl)ethyl)(methyl)phosphinic acid]
Human GPR40
  EC50: ≤ 50 nM

## CO[C@H](c1cc(COc2cc([C@@H](CP(C)(=O)O)C3CC3)ccn2)ccc1-c1cc(O)ccc1F)C(C)(C)C [Compound 31, ((S)-2-cyclopropyl-2-(2-((2′-fluoro-5′-hydroxy-2-((S)-1-methoxy-2,2-dimethylpropyl)-[1,1′-biphenyl]-4-yl)methoxy)pyridin-4-yl)ethyl)(methyl)phosphinic acid]
Human GPR40
  EC50: ≤ 50 nM

## COc1ccc(F)c(-c2ccc(COc3cccc(C(C)CP(C)(=O)O)c3)cc2[C@@H](OC)C(C)(C)C)c1 (single isomer, unassigned) [Compound 33]
Human GPR40
  EC50: ≤ 50 nM
